Measured values published in US20230286946A1, “DIFLUOROMETHYL-PYRIDIN-2-YL TRIAZOLES” (Boehringer Ingelheim International GmbH, priority 2020, published 2023).

Columns and labels:
[1] = Metabolic stability in human liver microsomes (Human MST); format: in vitro ADME; settings: pH 7.6, pooled human liver microsomes, 37° C., read-out: Human MST t½
Method: Assessment of Metabolic Stability in Human Liver Microsomes (Human MST) The metabolic stability of the compounds according to the invention may be investigated as follows: The metabolic degradation of the test compound is assayed at 37° C. with pooled human liver microsomes. The final incubation volume of 100 μL per time point contains TRIS buffer pH 7.6 at room temperature (0.1 M), MgCl2 (5 mM), microsomal protein (1 mg/mL) and the test compound at a final concentration of 1 μM. Following a short pre-incubation period at 37° C., the reactions are initiated by addition of beta-nicotinamide adenine dinucleotide phosphate, reduced form (NADPH, 1 mM), and terminated by transferring an aliquot into solvent after different time points. After centrifugation (10000 g, 5 min), an aliquot of the supernatant is assayed by LCMS/MS for the amount of parent compound. The half-life (t1/2) is determined by the slope of the semi-logarithmic plot of the concentration-time profile.

[2] = tested on: human MDR1 P-gp; assay: Assessment of efflux in MDCK cells transfected with the human MDR1 gene; format: in vitro ADME, canine; settings: dog, pH 7.4, 37° C.; for Papp A→B: apical-to-basal, read-out: MDCK-PGP A-B; for efflux ratio: read-out: MDCK-PGP Efflux ratio [PEBA/PEAB]
Method: Assessment of efflux in Madin-Darby canine kidney (MDCK) cells transfected with the human MDR1 gene to assess brain penetration (Drug Metabolism and Disposition February 2008, 36 (2) 268-275; DOI: https://doi.org/10.1124/dmd.107.017434)
Apparent permeability coefficients (PE) of the compounds across the MDCK-MDR1 cell monolayers are measured (pH 7.4, 37° C.) in apical-to-basal (AB) and basal-to-apical (BA) transport direction. AB permeability (PEAB) represents drug absorption from the blood into the 35 brain and BA permeability (PEBA) drug efflux from the brain back into the blood via both passive permeability as well as active transport mechanisms mediated by efflux and uptake transporters that are expressed on the MDCK-MDR1 cells, predominantly by the overexpressed human MDR1 P-gp. The compounds are assigned to permeability/absorption classes by comparison of the AB permeabilities with the AB permeabilities of reference compounds with known in vitro permeability and oral absorption in the human. Identical or similar permeabilities in both transport directions indicate passive permeation, vectorial permeability points to additional active transport mechanisms. Higher PEBA than PEAB indicates the involvement of active efflux mediated by MDR1 P-gp. Active transport is concentration-dependently saturable.
MDCK-MDR1 cells (1-2×10e5 cells/1 cm2 area) are seeded on filter inserts (Costar transwell polycarbonate or PET filters, 0.4 μm pore size) and cultured (DMEM) for 7 days. Subsequently, the MDR1 expression is boosted by culturing the cells with 5 mM sodium butyrate in full medium for 2 days. Compounds are dissolved in appropriate solvent (like DMSO, 1-20 mM stock solutions). Stock solutions are diluted with HTP-4 buffer (128.13 mM NaCl, 5.36 mM KCl, 1 mM MgSO4, 1.8 mM CaCl2, 4.17 mM NaHCO3, 1.19 mM Na2HPO4×7H2O, 0.41 mM NaH2PO4×H2O, 15 mM HEPES, 20 mM glucose, 0.25% BSA, pH 7.4) to prepare the transport solutions (0.1-300 μM compound, final DMSO <=0.5%). The transport solution (TL) is applied to the apical or basolateral donor side for measuring A-B or B-A permeability (3 filter replicates), respectively. The receiver side contains the same buffer as the donor side. Samples are collected at the start and end of experiment from the donor and at various time intervals for up to 2 hours also from the receiver side for concentration measurement by HPLC-MS/MS or scintillation counting. Sampled receiver volumes are replaced with fresh receiver solution.

[3] = target: T1, α5ß2 γ2 GABAA Receptor (Homo sapiens, UniProt P18507+P31644); assay: Assay B: in vitro evaluation of modulation of α5ß2γ2 GABAA receptor, two-electrode voltage clamp in oocytes; format: cell-based; settings: for EC50: co-application with 0.5 μM GABA, oocytes, read-out: Assay B: GABAA α 5 β 3 γ 2 EC50
T1 sequence (P31644 32-462): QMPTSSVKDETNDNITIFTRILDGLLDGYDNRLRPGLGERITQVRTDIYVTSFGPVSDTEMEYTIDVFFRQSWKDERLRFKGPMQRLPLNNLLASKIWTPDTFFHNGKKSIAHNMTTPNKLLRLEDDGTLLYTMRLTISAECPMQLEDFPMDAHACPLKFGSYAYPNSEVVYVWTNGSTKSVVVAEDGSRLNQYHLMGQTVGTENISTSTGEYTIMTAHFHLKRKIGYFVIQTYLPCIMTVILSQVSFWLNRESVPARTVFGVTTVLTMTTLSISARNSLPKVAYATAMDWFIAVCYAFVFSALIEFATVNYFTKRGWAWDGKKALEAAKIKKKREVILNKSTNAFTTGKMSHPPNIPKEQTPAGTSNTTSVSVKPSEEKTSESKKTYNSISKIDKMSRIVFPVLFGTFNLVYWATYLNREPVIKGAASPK
T1 sequence (P18507 40-376 limits assumed): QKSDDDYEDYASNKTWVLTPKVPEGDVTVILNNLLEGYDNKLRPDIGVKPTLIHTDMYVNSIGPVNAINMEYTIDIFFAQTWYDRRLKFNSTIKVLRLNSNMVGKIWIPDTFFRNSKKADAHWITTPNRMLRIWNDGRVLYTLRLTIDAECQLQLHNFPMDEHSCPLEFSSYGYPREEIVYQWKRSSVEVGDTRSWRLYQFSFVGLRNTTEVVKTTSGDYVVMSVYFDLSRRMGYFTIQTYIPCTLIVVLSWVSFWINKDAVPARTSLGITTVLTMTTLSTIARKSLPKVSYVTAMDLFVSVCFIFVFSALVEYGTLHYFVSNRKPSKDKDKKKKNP
Method: Assay B: In Vitro Evaluation of Modulation of α5ß2 γ2 GABAA Receptor.
Modulatory efficacy of compounds of formular (I) is determined electrophysiological recordings in oocytes using the two-electrode voltage clamp (TEVC) technique. Oocytes are injected with cRNA for human GABAA receptor subunits α5, ß2 and γ2 in a 3:1:3 ratio and modulatory efficacy is evaluated by co-applications with a submaximal EC5-20 GABA concentration (0.5 μM) termed GABA control. As a standard, the compounds are tested in five concentrations (3.16, 0.316, 0.0316, 0.00316 and 0.000316 μM) on each oocyte starting with the lowest concentration. Background subtracted peak current amplitudes are normalized to the respective GABAcontrol current, converted to % change and depicted +/−S.E.M. as a function of increasing compound concentrations. Plotted datapoints are fitted to the empirical Hill equation using non-linear regression. 95% confidence intervals for maximal efficacy (Bottom) and potency (Log EC50) are derived from this fitting routine.

Compound	half-life at 1 μM [1] [h]	Papp A→B [2] [×10⁻⁶ cm/s]	efflux ratio [2]	Assay B: GABAA α 5 β 3 γ 2 Emax vs GABA [3] [%]	EC50 [3] [nM]
Cc1ncnn1-c1ccc(OCc2c(-c3ccc(C(F)F)cn3)nnn2C)nn1 [Example 48, 3-({4-[5-(difluoromethyl)pyridin-2-yl]-1-methyl-1H-1,2,3-triazol-5-yl}methoxy)-6-(5-methyl-1H-1,2,4-triazol-1-yl)pyridazine]	> 2.17	69	0.8	-13.2	78.9
Cc1ncc(-c2ccc(OCc3c(C)nnn3-c3ccc(C(F)F)cn3)nn2)o1 [Example 18]	> 2.17	71	0.6	-28.7	23.3
Cc1nnn(-c2ccc(C(F)F)cn2)c1COc1ccc(-n2nccn2)nn1 [Example 43]		54	0.7	-20.2	24.8
Cn1nnc(-c2ccc(C(F)F)cn2)c1COc1ccc(-n2cccn2)nn1 [Example 50]	2.17			-13.7	12
Cn1nnc(-c2ccc(C(F)F)cn2)c1COc1ccc(-c2cnc3nonc3c2)nn1 [Example 35]	> 2.17			-9.6	63
Cc1c(-c2ccc(OCc3c(-c4ccc(C(F)F)cn4)nnn3C)nn2)cnn1C [Example 33]	1.63			-21	29.5
Cc1nn(C)cc1-c1ccc(OCc2c(-c3ccc(C(F)F)cn3)nnn2C)nn1 [Example 30]	> 2.17			-4.7	4.6
Cc1nnn(-c2ccc(C(F)F)cn2)c1COc1ccc(-n2ncnc2C)nn1 [Example 38]		86	0.5	-22.5	22.8
Cn1nnc(-c2ccc(C(F)F)cn2)c1COc1ccc(-c2ccc(S(C)(=O)=O)nc2)nn1 [Example 23]	> 2.17			-8	3.1
Cc1n[nH]c(C)c1-c1ccc(OCc2c(C)nnn2-c2ccc(C(F)F)cn2)nn1 [Example 15]		17	3.5	-24.7	34.7
Cn1nnc(-c2ccc(C(F)F)cn2)c1COc1ccc(-c2ccc(N)nc2)nn1 [Example 25]	> 2.17			-11	8.2
COc1ncc(-c2ccc(OCc3c(-c4ccc(C(F)F)cn4)nnn3C)nn2)cn1 [Example 31]	2.12			-12.3	20
Cn1nnc(-c2ccc(C(F)F)cn2)c1COc1ccc(-n2ccc(C#N)n2)nn1 [Example 53]	> 2.17				3.9
Cc1nnn(-c2ccc(C(F)F)cn2)c1COc1ccc(-c2ccc(C#N)nc2)nn1 [Example 8]	> 2.17			2.7	
Cc1c(-c2ccc(OCc3c(-c4ccc(C(F)F)cn4)nnn3C)nn2)cc(C#N)n1C [Example 29]	1.62			-29	11.5
Cc1nnn(-c2ccc(C(F)F)cn2)c1COc1ccc(-c2ccc(S(C)(=O)=O)nc2)nn1 [Example 16]		59	0.6	-20.3	85.9
Cc1nnn(-c2ccc(C(F)F)cn2)c1COc1ccc(-c2cnc(N)nc2)nn1 [Example 2]		34	1.9	-25.3	92.5
Cc1nnn(-c2ccc(C(F)F)cn2)c1COc1ccc(-n2cnc(C#N)c2)nn1 [Example 42, 1-[6-({1-[5-(difluoromethyl)pyridin-2-yl]-4-methyl-1H-1,2,3-triazol-5-yl}methoxy)pyridazin-3-yl]-1H-imidazole-4-carbonitrile]		24	1.4	-25	15.8
Cc1nnn(-c2ccc(C(F)F)cn2)c1COc1ccc(-c2cc[nH]n2)nn1 [Example 5]	1.38			-32.3	11.6
Cn1nnc(-c2ccc(C(F)F)cn2)c1COc1ccc(-c2cnn(C3CCC3)c2)nn1 [Example 32]	1.3			-3.3	
CNc1cccc(-c2ccc(OCc3c(C)nnn3-c3ccc(C(F)F)cn3)nn2)n1 [Example 14]		55	0.7	-21	89
Cc1nnn(-c2ccc(C(F)F)cn2)c1COc1ccc(-c2ccc(C#N)s2)nn1 [Example 12]		51	0.3	-12.3	147
Cc1nnn(-c2ccc(C(F)F)cn2)c1COc1ccc(-c2ccc(N)nc2)nn1 [Example 19]		41	1.2	-28.5	64
Cn1nnc(-c2ccc(C(F)F)cn2)c1COc1ccc(-n2cc(C#N)cn2)nn1 [Example 49]	> 2.17			5.7	
Cc1nnn(-c2ccc(C(F)F)cn2)c1COc1ccc(-c2cnn(CC#N)c2)nn1 [Example 7]	> 2.17			-6.3	12.7
Cc1nnn(-c2ccc(C(F)F)cn2)c1COc1ccc(-c2cccc(C(N)=O)c2)nn1 [Example 6]	1.93			-8.8	13.9
